Reference: patent US10849847B2, “Compositions and methods for treating rosacea and acne” (Foamix Pharmaceuticals Ltd., priority 2016, dated 2020)
Where two headings read alike, the source gives them in different places.

Columns and labels:
[1] = for Compatibility with Minocycline HCl: tested after the storage for up to 3 weeks; for Effect of anti-oxidant on oxidation of Minocycline HCl: waterless medium of propylene glycol and PEG 200; for Compatibility with Minocycline HCl (observations): on dissolution / storage
Method: The ratio between MCH and the tested excipient is detailed below. Visual inspection was the major criterion for indication of compatibility. The color of intact MCH suspension is pale yellow; and any change of color (e.g., to dark orange, red, green, brown and black) indicates oxidation or degradation.
Other than hydrogenated castor oil, beeswax, paraffin and hard fat, the aforesaid items listed are oily emollients.
Additives were tested for compatibility with MCH. […] In parallel, antioxidants were added to the MCH suspensions comprising water.

[2] = Doxycycline Hyclate Compatibility Test; assay type: physicochemical; conditions: for Effect of anti-oxidant on oxidation of Doxycycline Hyclate: waterless medium of propylene glycol and PEG 200
Method: (§1) A similar compatibility study was conducted for Doxycycline Hyclate and Doxycycline Monohydrate.
(§2) Different compositions of hydrophilic and hydrophobic solvents containing Doxycycline Hyclate (Set I and Set II) and Doxycycline Monohydrate (Set III) were prepared by weighing the antibiotic in a glass vial and shaking overnight with each solvent investigated.
Group II included Doxycycline Hyclate mixed with various vehicles with addition of antioxidants like alpha tocopherol, butylated hydroxytoluene (BHT), and ascorbic acid.

[3] = Phase I PK study in adults with acne: topical minocycline foam 4% for 21 days vs single oral dose of minocycline (FX2014-03); assay type: in vivo, human; conditions: Period 1, single oral dose ~1 mg/kg minocycline, Day 1-5; for AUC(0-inf) / AUC / Cmax / half-life / Tmax: both sexes, human, plasma, po, 1 mg/kg
Method: Each application was approximately 4 g (a maximal-use dose). […] On the day of initial dosing (Day 1), subjects checked into the clinic where they were confined until 1 hour after study drug was administered. Predose clinical assessments were performed and a 1 mL blood sample for PK analysis was obtained before study drug was administered.
SUBJECTS: Adults were eligible for this study if they were 18 to 35 years of age; children were eligible for the pediatric study if they were 9 to 16 years and 11 months of age and in good health, as judged on the basis of their medical history and the screening procedures. They were required to have moderate-to-severe facial acne vulgaris as well as acne affecting at least two additional regions of the body (neck, upper chest, upper back, or arms).
On days 6, 9, 10, 11, and 16, blood samples were obtained at approximately 30 minutes before the scheduled application. […] After the final application, subjects were asked to return for additional blood sampling on days 23, 24, and 25.
BIOANALYTICAL METHODS: Blood samples were collected and centrifuged, and the separated plasma was stored at approximately −70° C.
Actual sample collection times were used for the purpose of calculating pharmacokinetic parameters. […] Geometric mean was calculated for Cmax, AUC0-tldc, AUC0-inf, and AUC0-tau, and the harmonic mean was calculated for t1/2. Analysis of multiple-dose accumulation, determination of steady state, and other pertinent comparisons of pharmacokinetic parameters across or between doses were performed using the appropriate statistical methods. […] The CIs were expressed as a percentage relative to the LSM of the reference treatment.

[4] = Doxycycline Monohydrate Compatibility Test; assay type: physicochemical
Method: as §1, §2
A similar compatibility test was performed on another form of Doxycycline—Doxycycline Monohydrate.

[5] = Doxycycline Monohydrate Compatibility Test; assay type: physicochemical; conditions: waterless medium of propylene glycol and PEG 200
papulopustular rosacea = conditions: cited from earlier work; for IGA = Clear/Almost Clear / Inflammatory Lesions: Mean Absolute Reduction / ≥2 IGA Grade Reduction: Week 16
[6] = foam adjuvants, MCH:excipient 1:50
[7] = tested after the storage for up to 3 weeks
[8] = hydrophilic solvents, MCH:excipient 1:250, 25° C. and 40° C., maximum sixty days
[9] = surfactants solubilized in mineral oil, MCH:excipient 1:50
[10] = mixtures stored at 25° C., 40° C. and 50° C. for two weeks
[11] = oily emollients, MCH:excipient 1:250, 25° C. and 40° C., maximum sixty days

Compound: CCCCCCCC/C=C\CCCCCCCC(=O)O [Oleic acid]
- Compatibility with MCH [1, 6]: compatible

Compound: Sorbitan Monostearate
- Compatibility with Doxycycline Hyclate [2, 7]: Yes
- Compatibility with Minocycline HCl [1]: Yes

Compound: CN(C)c1ccc(O)c2c1C[C@H]1C[C@H]3[C@H](N(C)C)C(O)=C(C(N)=O)C(=O)[C@@]3(O)C(O)=C1C2=O [Solodyn]
- kel, Mean [3]: 0.044 h⁻¹
- kel, Median [3]: 0.04 h⁻¹
- AUC(0-inf) ([3]; read-out: AUC0-inf, Geometric Mean): 15100 ng·h/mL
- AUC(0-inf) ([3]; read-out: AUC0-inf, Mean): 15500 ng·h/mL
- AUC(0-inf) ([3]; read-out: AUC0-inf, Median): 15600 ng·h/mL
- AUC ([3]; read-out: AUC0-tldc, Geometric Mean): 14800 ng·h/mL
- AUC ([3]; read-out: AUC0-tldc, Mean): 15200 ng·h/mL
- AUC ([3]; read-out: AUC0-tldc, Median): 15400 ng·h/mL
- Cmax ([3]; read-out: Cmax, Geometric Mean): 850 ng/mL
- Cmax ([3]; read-out: Cmax, Mean): 873 ng/mL
- Cmax ([3]; read-out: Cmax, Median): 801 ng/mL
- half-life ([3]; read-out: T1/2, Harmonic Mean (converted)): 15.8 h
- half-life ([3]; read-out: T1/2, Mean (converted)): 16 h
- half-life ([3]; read-out: T1/2, Median (converted)): 15.9 h
- Tmax ([3]; read-out: Tmax, Mean): 2.7 h
- Tmax ([3]; read-out: Tmax, Median): 3 h

Compound: CCOCCOCCO [Diethylene glycol monoethyl ether]
- Compatibility with MCH [1, 8]: incompatible

Compound: Sorbitan Monolaurate
- Compatibility with Doxycycline Hyclate [2, 7]: No
- Compatibility with Minocycline HCl [1]: No
- Compatibility with Doxycycline Monohydrate [4, 7]: No

Compound: Cc1c(C)c2c(c(C)c1O)CC[C@@](C)(CCC[C@H](C)CCC[C@H](C)CCCC(C)C)O2 [alpha-tocopherol]
- Effect of anti-oxidant on oxidation of Doxycycline Hyclate [2]: did not prevent the oxidation
- Effect of antioxidant on MCH degradation [1]: did not prevent MCH degradation
- Effect of anti-oxidant on oxidation of Minocycline HCl [1]: did not prevent the oxidation
- Effect of anti-oxidant on oxidation of Doxycycline Monohydrate [5]: did not prevent the oxidation

Compound: CCCCCCCC/C=C\CCCCCCCCO [Oleyl alcohol]
- Compatibility with Doxycycline Hyclate [2, 7]: Yes
- Compatibility with MCH [1, 6]: compatible
- Compatibility with Minocycline HCl [1]: Yes

Compound: CC(C)CCCCCCCCCCCCCCC(=O)O [Isostearic acid]
- Compatibility with Doxycycline Hyclate [2, 7]: Yes
- Compatibility with MCH [1, 6]: not compatible
- Compatibility with Minocycline HCl [1]: No

Compound: CCCCCCCCCCCCCCCCO [Cetyl alcohol]
- Compatibility with MCH [1, 6]: compatible

Compound: SPAN 40
- Compatibility with MCH [1, 9]: incompatible

Compound: SPAN 80
- Compatibility with MCH [1, 9]: incompatible

Compound: CC(C)CCCCCCCCCCCCCCCO [Isostearyl alcohol]
- Compatibility with MCH [1, 6]: compatible

Compound: CCCCCCCCCCC(CO)CCCCCCCC (stereo not drawn) [Octyl dodecanol]
- Compatibility with Doxycycline Hyclate [2, 10]: incompatibility
- Compatibility with Doxycycline Hyclate [2, 7]: No
- Compatibility with MCH [1, 11]: compatible
- Compatibility with Minocycline HCl (observations) [1]: full compatibility
- Compatibility with Minocycline HCl [1]: Yes
- Compatibility with Doxycycline Monohydrate [4, 10]: incompatibility
- Compatibility with Doxycycline Monohydrate [4, 7]: No

Compound: CCCCCCCCCCCCCCCCCCCCCCO [Behenyl alcohol]
- Compatibility with MCH [1, 6]: compatible

Compound: CCCCCCCCCCCCCCCC(=O)O [Palmitic acid]
- Compatibility with MCH [1, 6]: compatible

Compound: CCCCCCCCCCCCCCCCCC(=O)OCC(O)CO (stereo not drawn) [Glyceryl monostearate]
- Compatibility with MCH [1, 9]: incompatible

Compound: SPAN 60
- Compatibility with MCH [1, 9]: incompatible

Compound: CCCCCCCCCCCCCCO [Myristyl alcohol]
- Compatibility with Doxycycline Hyclate [2, 7]: Yes
- Compatibility with MCH [1, 6]: compatible
- Compatibility with Minocycline HCl [1]: Yes

Compound: OCC(O)CO [Glycerin]
- Compatibility with Doxycycline Hyclate [2, 7]: No
- Compatibility with MCH [1, 8]: incompatible
- Compatibility with Minocycline HCl (observations) [1]: intensive oxidation
- Compatibility with Minocycline HCl [1]: No
- Compatibility with Doxycycline Monohydrate [4, 7]: No

Compound: OCCCCO [Butylene Glycol]
- Compatibility with Doxycycline Hyclate [2, 7]: No
- Compatibility with MCH [1, 8]: incompatible
- Compatibility with Minocycline HCl [1]: No
- Compatibility with Doxycycline Monohydrate [4, 7]: No

Compound: CC(O)CC(C)(C)O (stereo not drawn) [Hexylene Glycol]
- Compatibility with MCH [1, 8]: incompatible
- Compatibility with Minocycline HCl [1]: No
- Compatibility with Doxycycline Monohydrate [4, 10]: oxidized
- Compatibility with Doxycycline Monohydrate [4, 7]: No

Compound: CC(O)CO (stereo not drawn) [Propylene glycol]
- Compatibility with Doxycycline Hyclate [2, 7]: No
- Compatibility with MCH [1, 8]: incompatible
- Compatibility with Minocycline HCl [1]: No
- Compatibility with Doxycycline Monohydrate [4, 7]: No

Compound: Cyclomethicone
- Compatibility with MCH [1, 11]: compatible

Compound: C[S+](C)[O-] [Dimethyl Sulfoxide]
- Compatibility with MCH [1, 8]: incompatible

Compound: Sorbitan sesquistearate
- Compatibility with MCH [1, 9]: incompatible

Compound: C[Si]1(C)O[Si](C)(C)O[Si](C)(C)O[Si](C)(C)O[Si](C)(C)O1 [Cyclomethicone 5 NF]
- Compatibility with Doxycycline Hyclate [2, 7]: Yes
- Compatibility with Minocycline HCl [1]: Yes
- Compatibility with Doxycycline Monohydrate [4, 7]: Yes

Compound: CC(C)OC(=O)CCCCC(=O)OC(C)C [diisopropyl adipate]
- Compatibility with Doxycycline Hyclate [2, 7]: Yes
- Compatibility with MCH [1, 11]: compatible
- Compatibility with Minocycline HCl [1]: Yes
- Compatibility with Doxycycline Monohydrate [4, 7]: No

Compound: CCCCCCCCCCCCCCCCCC(=O)O [Stearic acid]
- Compatibility with MCH [1, 6]: compatible

Compound: CO[C@H]1CO[C@H]2[C@@H]1OC[C@H]2OC [Dimethyl Isosorbide]
- Compatibility with Doxycycline Hyclate [2, 7]: No
- Compatibility with MCH [1, 8]: incompatible
- Compatibility with Minocycline HCl [1]: No
- Compatibility with Doxycycline Monohydrate [4, 7]: No

Compound: CCCCCCCCCCCCCC(=O)OC(C)C [Isopropyl myristate]
- Compatibility with MCH [1, 11]: compatible

Compound: C[C@H]1c2cccc(O)c2C(=O)C2=C(O)[C@]3(O)C(=O)C(C(N)=O)=C(O)[C@@H](N(C)C)[C@@H]3[C@@H](O)[C@@H]21 [Oracea]
- Baseline IGA Moderate (papulopustular rosacea; Study 1, Active): 52.8%
- Baseline IGA Severe (papulopustular rosacea; Study 1, Active): 40.9%
- Inflammatory Lesions: Baseline No. of lesions (papulopustular rosacea; Study 1, Active): 19.5
- Baseline IGA Moderate (papulopustular rosacea; Study 2, Active): 54.2%
- Baseline IGA Severe (papulopustular rosacea; Study 2, Active): 33.8%
- Inflammatory Lesions: Baseline No. of lesions (papulopustular rosacea; Study 2, Active): 20.5
- IGA = Clear/Almost Clear (papulopustular rosacea; Study 1, Active): 30.7%
- Inflammatory Lesions: Mean Absolute Reduction (papulopustular rosacea; Study 1, Active): −11.8
- ≥2 IGA Grade Reduction (papulopustular rosacea; Study 1, Active): 45.7%
- IGA = Clear/Almost Clear (papulopustular rosacea; Study 2, Active): 14.8%
- Inflammatory Lesions: Mean Absolute Reduction (papulopustular rosacea; Study 2, Active): −9.5
- ≥2 IGA Grade Reduction (papulopustular rosacea; Study 2, Active): 22.5%

Compound: CCCCCCCCCCCCCCCCCCO [Stearyl alcohol]
- Compatibility with Doxycycline Hyclate [2, 7]: Yes
- Compatibility with MCH [1, 6]: compatible
- Compatibility with Minocycline HCl [1]: Yes

Compound: O=C1O[C@H]([C@@H](O)CO)C(O)=C1O [ascorbic acid]
- Effect of anti-oxidant on oxidation of Doxycycline Hyclate [2]: did not prevent the oxidation
- Effect of anti-oxidant on oxidation of Minocycline HCl [1]: did not prevent the oxidation
- Effect of anti-oxidant on oxidation of Doxycycline Monohydrate [5]: did not prevent the oxidation

Compound: CC1CCC(C(C)C)C(O)C1 (stereo not drawn) [Menthol]
- Compatibility with MCH ([1]; additives, MCH:excipient 1:50): compatible

Compound: BHA/BHT
- Effect of antioxidant on MCH degradation [1]: did not prevent MCH degradation

Compound: CCCOC(=O)c1cc(O)c(O)c(O)c1 [propyl gallate]
- Effect of antioxidant on MCH degradation [1]: did not prevent MCH degradation
